Measured values: the NIST ThermoML archive (doi:10.1016/j.fluid.2015.09.035)

Assay: excess molar enthalpy (molar enthalpy of mixing); xn = mol fraction of the nth substance listed
Details: Liquid, Flow calorimetry

C1CCCCC1 [cyclohexane] + CCCC(C)O
x2 = 0
Details | excess molar enthalpy [kcal/mol]
298.15 K | 0
313.15 K | 0

CCCC(C)O (centres undefined) [pentan-2-ol] + C1CCCCC1
excess molar enthalpy [kcal/mol]
Details | 298.15 K | 313.15 K
x1 = 0.0496 | 0.105 | 0.133
x1 = 0.1013 | 0.144 | 0.181
x1 = 0.151 | 0.169 | 0.208
x1 = 0.2008 | 0.189 | 0.229
x1 = 0.2506 | 0.205 | 0.246
x1 = 0.3003 | – | 0.258
x1 = 0.3005 | 0.218 | –
x1 = 0.3502 | – | 0.265
x1 = 0.3503 | 0.228 | –
x1 = 0.4001 | 0.232 | –
x1 = 0.4002 | – | 0.265
x1 = 0.4499 | 0.234 | –
x1 = 0.4501 | – | 0.265
x1 = 0.5001 | – | 0.259
x1 = 0.5002 | 0.228 | –
x1 = 0.5499 | 0.22 | –
x1 = 0.5501 | – | 0.251
x1 = 0.6001 | – | 0.236
x1 = 0.6002 | 0.207 | –
x1 = 0.6501 | 0.187 | –
x1 = 0.6502 | – | 0.219
x1 = 0.7002 | 0.166 | –
x1 = 0.7003 | – | 0.198
x1 = 0.7504 | 0.146 | –
x1 = 0.7505 | – | 0.171
x1 = 0.8007 | 0.121 | 0.144
x1 = 0.8509 | 0.0932 | –
x1 = 0.851 | – | 0.11
x1 = 0.9013 | 0.0625 | 0.0756
x1 = 0.9496 | 0.0302 | 0.0394
x1 = 1 | 0 | 0

CCCC(C)O (centres undefined) [pentan-2-ol] + Cc1ccccc1
excess molar enthalpy [kcal/mol]
Details | 298.15 K | 313.15 K
x1 = 0.0508 | 0.149 | 0.154
x1 = 0.0998 | 0.226 | –
x1 = 0.0999 | – | 0.245
x1 = 0.151 | 0.276 | 0.307
x1 = 0.2002 | 0.31 | –
x1 = 0.2003 | – | 0.346
x1 = 0.2496 | 0.335 | 0.375
x1 = 0.3009 | 0.354 | –
x1 = 0.301 | – | 0.397
x1 = 0.3506 | 0.367 | 0.408
x1 = 0.4003 | 0.373 | 0.414
x1 = 0.4501 | 0.373 | –
x1 = 0.4502 | – | 0.414
x1 = 0.5001 | 0.369 | 0.407
x1 = 0.5501 | 0.359 | –
x1 = 0.5502 | – | 0.394
x1 = 0.6003 | 0.344 | 0.377
x1 = 0.6505 | – | 0.353
x1 = 0.6506 | 0.32 | –
x1 = 0.701 | 0.293 | 0.32
x1 = 0.7495 | 0.259 | 0.282
x1 = 0.8002 | 0.22 | 0.239
x1 = 0.8509 | 0.173 | –
x1 = 0.851 | – | 0.187
x1 = 0.8996 | 0.12 | –
x1 = 0.8998 | – | 0.132
x1 = 0.9508 | 0.0597 | –
x1 = 0.9509 | – | 0.0661
x1 = 1 | 0 | 0

Cc1ccccc1 [toluene] + CCCC(C)O
x2 = 0
Details | excess molar enthalpy [kcal/mol]
298.15 K | 0
313.15 K | 0
